Experimental data from patent US20230277452A1, “COMPOSITIONS, DEVICES AND METHODS FOR TREATING NASAL, OTIC AND OTHER TISSUE INFECTION AND/OR INFLAMMATION” (priority 2020, published 2023).

Legend:
in vivo = conditions: male, Merino, sheep, in vivo
Procedure: The control article was 0.9% saline.
Blood was collected (via a jugular vein cannula inserted during surgery) during the 10-day post-dose phase for pharmacokinetics, hematology, clinical chemistry, glucose, and morning cortisol analysis.
Because of the variability in the volume of the sinus in sheep, the total volume varied from 5 to 15 mL. Doses calculated by body weight and body surface area (BSA) are also shown.

[1] = Recovery of force-degraded fluticasone propionate spiked into placebo and of active cream, HPLC; assay type: physicochemical
[2] = Betamethasone plasma concentration, Mean
[3] = Individual betamethasone plasma concentrations

In the case of `C[C@H]1C[C@H]2[C@@H]3CCC4=CC(=O)C=C[C@]4(C)[C@@]3(F)[C@@H](O)C[C@]2(C)[C@@]1(O)C(=O)CO` [Betamethasone, betamethasone], the AUC(0-inf) (in vivo) is reported as 35.2 ± 8.3 ng·h/mL, the AUC(0-t) (in vivo) is reported as 33.5 ± 8.9 ng·h/mL and the Cmax (in vivo) is reported as 0.98 ± 0.397 ng/mL. For the same molecule, the Tmax (in vivo) was 24 h, the “plasma levels detected through” value (in vivo) was 3 days post-dose and the “time of maximum plasma levels” value (in vivo) was “about 24 hr post-dose”. It also gave a concentration at 0 h (in vivo; [2]) of 0 ng/mL, a concentration at 0.5 h (in vivo; [2]) of 0.152 ng/mL and a concentration at 1 h (in vivo; [2]) of 0.307 ng/mL. It also gave a concentration at 2 h (in vivo; [2]) of 0.518 ng/mL, a concentration at 6 h (in vivo; [2]) of 0.74 ng/mL and a concentration at 24 h (in vivo; [2]) of 0.964 ng/mL. For the same molecule, the concentration at 48 h (in vivo; [2]) was 0.223 ng/mL, the concentration at 72 h (in vivo; [2]) was 0.071 ng/mL and the concentration at 0 h (in vivo; [3]) was 0 ng/mL. The concentration at 48 h (in vivo; [3]) was 0.229 ng/mL.
With `CCC(=O)O[C@]1(C(=O)SCF)[C@H](C)C[C@H]2[C@@H]3C[C@H](F)C4=CC(=O)C=C[C@]4(C)[C@@]3(F)[C@@H](O)C[C@@]21C` [Fluticasone Propionate 0.005%] the “Difference with Placebo (neat vs spiked recovery)” value (from here on “Difference with Placebo”) ([1]; 0.1N HC1 (1 hour)) was 6.03%, the “Difference with Placebo” value ([1]; 0.1N NaOH (1 hour)) was 0.19% and the “Difference with Placebo” value ([1]; 3% H2O2 (1 hour)) was 4.03%. The “Difference with Placebo” value ([1]; 60° C. (3 days)) was 1.09%, the “Difference with Placebo” value ([1]; Control (undegraded FP, kept at 4 C.)) was 0.2-1.1% ^ and the “Difference with Placebo” value ([1]; White light (3 days)) was 2.71%.
